Reference: patent US20160318987A1 (MEDIMMUNE LIMITED, priority 2013, published 2016)
Where a SMILES comes first, the peptide text is derived from it. [ ]: non-standard residue; d: D form. αMeF = C[C@](N)(Cc1ccccc1)C(=O)O; Aib = CC(C)(N)C(=O)O

What was measured:
Format in all cases: cell-based
Conditions in all cases: n = 2
hGluc-R = target: T1, hGluc-R (Homo sapiens, UniProt P47871); experiment: cAMP functional assay, cells expressing human glucagon receptor (primary assay)
T1 construct: expressed in transfected cells
T1 sequence (P47871 26-477): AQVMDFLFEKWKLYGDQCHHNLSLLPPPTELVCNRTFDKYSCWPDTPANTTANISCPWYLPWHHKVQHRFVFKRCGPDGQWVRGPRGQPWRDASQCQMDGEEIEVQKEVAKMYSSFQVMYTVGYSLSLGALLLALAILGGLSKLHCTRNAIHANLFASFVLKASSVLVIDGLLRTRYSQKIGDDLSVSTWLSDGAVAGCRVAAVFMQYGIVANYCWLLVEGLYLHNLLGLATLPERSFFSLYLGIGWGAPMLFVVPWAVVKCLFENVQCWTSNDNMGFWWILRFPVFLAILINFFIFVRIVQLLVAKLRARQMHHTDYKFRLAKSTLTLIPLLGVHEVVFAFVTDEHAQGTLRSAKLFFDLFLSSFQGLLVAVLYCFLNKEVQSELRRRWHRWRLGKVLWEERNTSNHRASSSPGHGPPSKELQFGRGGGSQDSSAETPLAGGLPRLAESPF
Procedure: The biological activities/receptor potencies of the synthetic GLP-1 peptides described herein are suitably tested for biological activity, e.g., stimulation of one or more cellular receptor responses. Stable cell lines expressing human, mouse, rat, or dog GLP-1 receptor (GLP-1R), glucagon receptor (GCGR) or glucose-dependent insulinotropic peptide (gastric inhibitory polypeptide) receptor (GIPR) are generated in HEK293 cells or CHO cells by standard methods.
cAMP assays were performed using “assay buffer”: Assay Buffer: 0.1% BSA (Sigma #A3059) in HBSS (Sigma #H8264) with 25 mM HEPES, pH 7.4 and containing 0.5 mM IBMX (Sigma #17018).
Low protein binding 384-well plates (Greiner #781280) are used to perform eleven 1 in 5 serial dilutions of test samples which are made in assay buffer. All sample dilutions are made in duplicate.
A frozen cryo-vial of cells expressing the receptor of interest is thawed rapidly in a water-bath, transferred to pre-warmed assay buffer and spun at 240× g for 5 minutes. Cells are re-suspended in assay buffer at a batch-dependent optimized concentration (e.g. hGCGR cells at 2×10^5 cells/ml, hGLP-1R and hGIPR cells at 1×10^5 cells /ml).
From the dilution plate, a 5 μL replica is stamped onto a black shallow-well u-bottom 384-well plate (Corning #3676). To this, 5 μL cell suspension is added and the plates incubated at room temperature for 30 minutes.
cAMP levels are measured using a commercially available cAMP dynamic 2 HTRF kit (Cisbio, Cat #62AM4PEJ), following the two step protocol as per manufacturer's recommendations. In brief; anti-cAMP cryptate (donor fluorophore) and cAMP-d2 (acceptor fluorophore) are made up separately by diluting each 1/20 in conjugate & lysis buffer provided in the kit. 5 μL anti-cAMP cryptate is added to all wells of the assay plate, and 5 μL cAMP-d2 is added to all wells except non-specific binding (NSB) wells, to which conjugate and lysis buffer are added. Plates are incubated at room temperature for one hour and then read on an Envision (Perkin Elmer) using excitation wavelength of 320 nm and emission wavelengths of 620 nm & 665 nm. EC50 values of the synthetic peptides determined in cAMP assays are then determined.

hGLP-1R = target: T2, hGLP-1R (Homo sapiens, UniProt P43220); experiment: cAMP functional assay, cells expressing human GLP-1 receptor (primary assay)
T2 construct: expressed in transfected cells
T2 sequence (P43220 24-463): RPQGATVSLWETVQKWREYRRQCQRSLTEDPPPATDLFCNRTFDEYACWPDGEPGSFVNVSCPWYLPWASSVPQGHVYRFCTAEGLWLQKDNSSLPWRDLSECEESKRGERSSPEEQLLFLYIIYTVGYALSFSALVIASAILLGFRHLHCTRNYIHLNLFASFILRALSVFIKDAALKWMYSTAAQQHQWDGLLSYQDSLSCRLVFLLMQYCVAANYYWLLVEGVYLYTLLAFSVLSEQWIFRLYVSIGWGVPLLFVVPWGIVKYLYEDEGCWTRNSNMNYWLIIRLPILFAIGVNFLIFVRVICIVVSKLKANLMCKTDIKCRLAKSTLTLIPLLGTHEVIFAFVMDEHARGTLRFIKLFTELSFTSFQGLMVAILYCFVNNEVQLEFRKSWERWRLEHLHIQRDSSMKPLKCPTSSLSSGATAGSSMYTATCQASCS

hGIP-R = target: T3, hGIP-R (Homo sapiens, UniProt P48546); experiment: cAMP functional assay, cells expressing human GIP receptor (primary assay)
T3 construct: expressed in transfected cells
T3 sequence (P48546 22-466): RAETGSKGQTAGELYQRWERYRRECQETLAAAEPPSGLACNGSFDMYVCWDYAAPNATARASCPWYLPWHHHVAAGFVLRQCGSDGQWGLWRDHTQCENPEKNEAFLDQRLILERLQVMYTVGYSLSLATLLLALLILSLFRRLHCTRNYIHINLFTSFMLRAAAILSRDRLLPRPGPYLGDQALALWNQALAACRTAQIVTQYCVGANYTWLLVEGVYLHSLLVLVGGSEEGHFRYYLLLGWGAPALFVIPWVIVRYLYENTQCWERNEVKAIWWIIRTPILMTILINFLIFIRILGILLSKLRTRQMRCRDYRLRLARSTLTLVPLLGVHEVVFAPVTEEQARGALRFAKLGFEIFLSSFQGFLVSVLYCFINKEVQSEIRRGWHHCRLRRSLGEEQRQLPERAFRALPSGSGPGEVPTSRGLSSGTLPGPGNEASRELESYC

EC50 (hGluc-R)	EC50 (hGLP-1R)	EC50 (hGIP-R)	Structure (SMILES)
90.6 nM	0.0254 nM	90.6 nM	CCCCCCCCCCCCCCCC(=O)NCCCC[C@H](NC(=O)[C@H](CCCNC(=N)N)NC(=O)CNC(=O)[C@H](CCCCN)NC(=O)[C@@H](NC(=O)[C@H](CC(C)C)NC(=O)[C@H](Cc1c[nH]c2ccccc12)NC(=O)[C@H](C)NC(=O)[C@@H](NC(=O)[C@H](Cc1ccccc1)NC(=O)[C@H](CCC(=O)O)NC(=O)[C@H](CCCCN)NC(=O)[C@H](C)NC(=O)[C@H](C)NC(=O)[C@H](CCC(N)=O)NC(=O)CNC(=O)[C@H](CCC(=O)O)NC(=O)[C@H](CC(C)C)NC(=O)[C@H](Cc1ccc(O)cc1)NC(=O)[C@H](CO)NC(=O)[C@H](CO)NC(=O)[C@@H](NC(=O)[C@H](CC(=O)O)NC(=O)[C@H](CO)NC(=O)[C@@H](NC(=O)[C@H](Cc1ccccc1)NC(=O)[C@@H](NC(=O)CNC(=O)[C@H](CCC(=O)O)NC(=O)C(C)(C)NC(=O)[C@@H](N)Cc1c[nH]cn1)[C@@H](C)O)[C@@H](C)O)C(C)C)[C@@H](C)CC)C(C)C)C(N)=O [SEQ ID NO: 5, H-(Aib)^2-EGT^5 FTSDV^10 SSYLE^15 GQAAK^20 EFIAW^25 LVKGR^30-K(Ε-Palm), reference compound]
153 nM	0.026 nM	74.9 nM	CC[C@H](C)[C@H](NC(=O)[C@H](Cc1ccccc1)NC(=O)[C@H](CCC(=O)O)NC(=O)[C@H](CCCCN)NC(=O)[C@H](C)NC(=O)[C@H](C)NC(=O)[C@H](CCC(N)=O)NC(=O)CNC(=O)[C@H](CCC(=O)O)NC(=O)[C@H](CC(C)C)NC(=O)[C@H](Cc1ccc(O)cc1)NC(=O)[C@H](CO)NC(=O)[C@H](CO)NC(=O)[C@@H](NC(=O)[C@H](CC(=O)O)NC(=O)[C@H](CO)NC(=O)[C@@H](NC(=O)[C@](C)(Cc1ccccc1)NC(=O)[C@@H](NC(=O)CNC(=O)[C@H](CCC(=O)O)NC(=O)C(C)(C)NC(=O)[C@@H](N)Cc1c[nH]cn1)[C@@H](C)O)[C@@H](C)O)C(C)C)C(=O)N[C@@H](C)C(=O)N[C@@H](Cc1c[nH]c2ccccc12)C(=O)N[C@@H](CC(C)C)C(=O)N[C@H](C(=O)N[C@@H](CCCCN)C(=O)NCC(=O)N[C@@H](CCCNC(=N)N)C(N)=O)C(C)C [SEQ ID NO: 6, H-(Aib)^2-EGT^5-(α-MeF)^6-TSDV^10 SSYLE^15 GQAAK^20 EFIAW^25 LVKGR^30]
151 nM	0.0728 nM	151 nM	CC[C@H](C)[C@H](NC(=O)[C@H](Cc1ccccc1)NC(=O)[C@H](CCC(=O)O)NC(=O)[C@H](CCCCN)NC(=O)[C@H](C)NC(=O)[C@H](C)NC(=O)[C@H](CCC(N)=O)NC(=O)CNC(=O)[C@H](CCC(=O)O)NC(=O)[C@H](CC(C)C)NC(=O)[C@H](Cc1ccc(O)cc1)NC(=O)[C@H](CO)NC(=O)[C@H](CO)NC(=O)[C@@H](NC(=O)[C@H](CC(=O)O)NC(=O)[C@H](CO)NC(=O)[C@@H](NC(=O)C(C)(C)NC(=O)[C@@H](NC(=O)CNC(=O)[C@H](CCC(=O)O)NC(=O)C(C)(C)NC(=O)[C@@H](N)Cc1c[nH]cn1)[C@@H](C)O)[C@@H](C)O)C(C)C)C(=O)N[C@@H](C)C(=O)N[C@@H](Cc1c[nH]c2ccccc12)C(=O)N[C@@H](CC(C)C)C(=O)N[C@H](C(=O)N[C@@H](CCCCN)C(=O)NCC(=O)N[C@@H](CCCNC(=N)N)C(N)=O)C(C)C [SEQ ID NO: 7, H-(Aib)^2-EGT^5-(Aib)^6-TSDV^10 SSYLE^15 GQAAK^20 EFIAW^25 LVKGR^30]
156 nM	0.0229 nM	156 nM	CC[C@H](C)[C@H](NC(=O)[C@H](Cc1ccccc1)NC(=O)[C@H](CCC(=O)O)NC(=O)[C@H](CCCCN)NC(=O)[C@H](C)NC(=O)[C@H](C)NC(=O)[C@H](CCC(N)=O)NC(=O)CNC(=O)[C@H](CCC(=O)O)NC(=O)[C@H](CC(C)C)NC(=O)[C@](C)(Cc1ccc(O)cc1)NC(=O)[C@H](CO)NC(=O)[C@H](CO)NC(=O)[C@@H](NC(=O)[C@H](CC(=O)O)NC(=O)[C@H](CO)NC(=O)[C@@H](NC(=O)[C@H](Cc1ccccc1)NC(=O)[C@@H](NC(=O)CNC(=O)[C@H](CCC(=O)O)NC(=O)C(C)(C)NC(=O)[C@@H](N)Cc1c[nH]cn1)[C@@H](C)O)[C@@H](C)O)C(C)C)C(=O)N[C@@H](C)C(=O)N[C@@H](Cc1c[nH]c2ccccc12)C(=O)N[C@@H](CC(C)C)C(=O)N[C@H](C(=O)N[C@@H](CCCCN)C(=O)NCC(=O)N[C@@H](CCCNC(=N)N)C(N)=O)C(C)C [SEQ ID NO: 8, H-(Aib)^2-EGT^5 FTSDV^10 SS-(α-MeY)^13-LE^15 GQAAK^20 EFIAW^25 LVKGR^30]
141 nM	0.0338 nM	141 nM	CC[C@H](C)[C@H](NC(=O)[C@H](Cc1ccccc1)NC(=O)[C@H](CCC(=O)O)NC(=O)[C@H](CCCCN)NC(=O)[C@H](C)NC(=O)[C@H](C)NC(=O)[C@H](CCC(N)=O)NC(=O)CNC(=O)[C@H](CCC(=O)O)NC(=O)[C@H](CC(C)C)NC(=O)[C@](C)(Cc1ccccc1)NC(=O)[C@H](CO)NC(=O)[C@H](CO)NC(=O)[C@@H](NC(=O)[C@H](CC(=O)O)NC(=O)[C@H](CO)NC(=O)[C@@H](NC(=O)[C@H](Cc1ccccc1)NC(=O)[C@@H](NC(=O)CNC(=O)[C@H](CCC(=O)O)NC(=O)C(C)(C)NC(=O)[C@@H](N)Cc1c[nH]cn1)[C@@H](C)O)[C@@H](C)O)C(C)C)C(=O)N[C@@H](C)C(=O)N[C@@H](Cc1c[nH]c2ccccc12)C(=O)N[C@@H](CC(C)C)C(=O)N[C@H](C(=O)N[C@@H](CCCCN)C(=O)NCC(=O)N[C@@H](CCCNC(=N)N)C(N)=O)C(C)C [SEQ ID NO: 9, H-(Aib)^2-EGT^5 FTSDV^10 SS-(α-MeF)^13-LE^15 GQAAK^20 EFIAW^25 LVKGR^30] (H-H[Aib]EGTFTSDVSS[αMeF]LEGQAAKEFIAWLVKGR-NH2)
131 nM	0.0437 nM	131 nM	CC[C@H](C)[C@H](NC(=O)[C@H](Cc1ccccc1)NC(=O)[C@H](CCC(=O)O)NC(=O)[C@H](CCCCN)NC(=O)[C@H](C)NC(=O)[C@H](C)NC(=O)[C@H](CCC(N)=O)NC(=O)CNC(=O)[C@H](CCC(=O)O)NC(=O)[C@H](CC(C)C)NC(=O)C(C)(C)NC(=O)[C@H](CO)NC(=O)[C@H](CO)NC(=O)[C@@H](NC(=O)[C@H](CC(=O)O)NC(=O)[C@H](CO)NC(=O)[C@@H](NC(=O)[C@H](Cc1ccccc1)NC(=O)[C@@H](NC(=O)CNC(=O)[C@H](CCC(=O)O)NC(=O)C(C)(C)NC(=O)[C@@H](N)Cc1c[nH]cn1)[C@@H](C)O)[C@@H](C)O)C(C)C)C(=O)N[C@@H](C)C(=O)N[C@@H](Cc1c[nH]c2ccccc12)C(=O)N[C@@H](CC(C)C)C(=O)N[C@H](C(=O)N[C@@H](CCCCN)C(=O)NCC(=O)N[C@@H](CCCNC(=N)N)C(N)=O)C(C)C [SEQ ID NO: 10, H-(Aib)^2-EGT^5 FTSDV^10 SS-(Aib)^13-LE^15 GQAAK^20 EFIAW^25 LVKGR^30] (H-H[Aib]EGTFTSDVSS[Aib]LEGQAAKEFIAWLVKGR-NH2)
153 nM	0.0547 nM	153 nM	CC[C@H](C)[C@H](NC(=O)[C@](C)(Cc1ccccc1)NC(=O)[C@H](CCC(=O)O)NC(=O)[C@H](CCCCN)NC(=O)[C@H](C)NC(=O)[C@H](C)NC(=O)[C@H](CCC(N)=O)NC(=O)CNC(=O)[C@H](CCC(=O)O)NC(=O)[C@H](CC(C)C)NC(=O)[C@H](Cc1ccc(O)cc1)NC(=O)[C@H](CO)NC(=O)[C@H](CO)NC(=O)[C@@H](NC(=O)[C@H](CC(=O)O)NC(=O)[C@H](CO)NC(=O)[C@@H](NC(=O)[C@H](Cc1ccccc1)NC(=O)[C@@H](NC(=O)CNC(=O)[C@H](CCC(=O)O)NC(=O)C(C)(C)NC(=O)[C@@H](N)Cc1c[nH]cn1)[C@@H](C)O)[C@@H](C)O)C(C)C)C(=O)N[C@@H](C)C(=O)N[C@@H](Cc1c[nH]c2ccccc12)C(=O)N[C@@H](CC(C)C)C(=O)N[C@H](C(=O)N[C@@H](CCCCN)C(=O)NCC(=O)N[C@@H](CCCNC(=N)N)C(N)=O)C(C)C [SEQ ID NO: 11, H-(Aib)^2-EGT^5 FTSDV^10 SSYLE^15 GQAAK^20 E-(α-MeF)^22IAW^25 LVKGR^30]
